Results as given in article PMC6009935 (Journal of Enzyme Inhibition and Medicinal Chemistry, 2017).

Biological target: T1, KOR (Cavia porcellus, UniProt P41144)
T1 construct: b: performed in guinea pig whole brain membrane homogenates; from tissue; host or cells: guinea pig (LAL/HA/BR strain) whole brain membrane homogenate
Experiment: Radioligand competition binding with [3H]HS665
Parameters: species or system guinea pig
Method: Tris-HCl, EGTA, NaCl, MgCl2 x 6H2O, GDP, the GTP analogue GTPγS, were purchased from Sigma-Aldrich (Budapest, Hungary). Fatty acid free bovine serum albumin (BSA) was purchased from Serva (Heidelberg, Germany). Naloxone was kindly provided by the company Endo Laboratories DuPont de Nemours (Wilmington, DE, USA). HS665 was provided by Schmidhammer’s group (University of Innsbruck, Austria). […]
purchased from Tocris Bioscience (Bristol, UK).
DMSO. All compounds were stored in 1 mM stock solution at -20 °C. The radiolabelled GTP analogue, [35S]GTPγS (specific activity: 1000 Ci/mmol) were purchased from Hartmann Analytic (Braunschweig, Germany). [3H]DAMGO (specific activity: 38.8 Ci/mmol),12 [3H]IleDelt II (specific activity: 19,6 Ci/mmol), [3H]WIN55,212-2 (specific activity: 13,1 Ci/mmol) and [3H]HS665 (specific activity: 36.62 Ci/mmol),3 were radiolabeled by the Laboratory of Chemical Biology group in BRC (Szeged, Hungary).
For membrane homogenate preparations male and female Wistar rats (250-300 g body weight) and male guinea pigs (~700 g body weight, LAL/HA/BR strain) were used. Rats were housed in the local animal house of BRC (Szeged, Hungary), while guinea pigs were housed in LAB-ÁLL Bt.
(Budapest, Hungary). All the animals were kept in a temperature controlled room (21-24 °C) under a 12:12 light and dark cycle and were provided with water and food ad libitum. All housing and experiments were conducted in accordance with the European Communities Council Directives (2010/63/EU) and the Hungarian Act for the Protection of Animals in Research (XXVIII.tv. 32.§).
The total number of animals as well as their suffering was minimized.
Rat and guinea pig brain membrane homogenate preparation for binding assays Rats and guinea pigs were decapitated and their brains were quickly removed. The brains were prepared for membrane preparation as previously described,4 and partly used for binding experiments and partly were further prepared for the [35S]GTPγS binding experiments. Briefly the brains were homogenized, centrifuged in ice-cold 50 mM Tris-HCl (pH 7.4) buffer and incubated at 37 °C for 30 min in a shaking water-bath. After incubation the centrifugation was repeated as described above and the final pellet was suspended in 50 mM Tris-HCl pH 7.4 buffer containing 0.32 M sucrose, and stored at -80 °C. For the [35S]GTPγS binding experiments the final pellet of rat […]
brain membrane homogenate was suspended in ice-cold TEM (Tris-HCl, EGTA, MgCl2) and stored at -80 °C for further use.
Radioligand competition binding experiments
Aliquots of frozen rat brain membrane homogenates were centrifuged (18 000 rpm, 20 min, 4 °C) to remove sucrose and the pellets were suspended in 50 mM Tris-HCl buffer (pH 7.4). Membranes containing 0.4-0.8 mg/mL of protein were incubated in a final volume of 1 mL in the presence of unlabeled 5, 10 and 9 in increasing concentrations (10-11-10-5 M) in the presence of the appropriate radioligand in ~1 nM concentrations at certain temperature and amount of time depending on the radioligand ([3H]DAMGO and [3H]IleDelt II: 35 °C for 45 min; [3H]HS665: 30 °C, 45 min; [3H]WIN55,212-2: 30 °C for 60 min). Experiments performed with [3H]HS665 where incubated […]
more kappa receptors than the rat brain), while the rest of the radioligands were incubated together with rat whole brain membrane homogenates. Additionally, in experiments performed with […]
binding was determined in the absence of unlabeled compounds. […]

SMILES: Cc1c(C(=O)NC2CCNCC2)nn(-c2ccc(Cl)cc2Cl)c1-n1cccc1 [Compound 5]
- KOR binding affinity in words: negligible

SMILES: Cc1c(C(=O)NC2CCN(C(=O)[C@H](Cc3ccccc3)NC(=O)CNC(=O)[C@@H](C)NC(=O)[C@@H](N)Cc3ccc(O)cc3)CC2)nn(-c2ccc(Cl)cc2Cl)c1-n1cccc1 [Compound 9]
- KOR binding affinity in words: unexpected improvement of affinity
- Ki (guinea pig whole brain membrane homogenates, Cheng-Prusoff): 170 nM
- IC50 (guinea pig whole brain membrane homogenates, logarithm of IC50, negative sign printed, read-out: logIC50 ± S.E.M., [3H]HS665 (KOR) (converted)): 263 nM
- Selectivity ratio DOR/KOR (ratio of Ki values): 2.61
